Measurements published in ChEMBL document CHEMBL1268942, “Novel selective anti-androgens with a diphenylpentane skeleton” (Bioorg Med Chem Lett, 2010).

How the values were obtained:
[1] = Toxicity in androgen-dependent mouse SC3 cells at 30 uM; type: cell-based; conditions: sc-3, 30 µM
[2] = tested on: HL-60; assay: Selectivity index, ratio of EC50 for Vitamin-D activity at VDR receptor in human HL60 cells to EC50 for antiandrogen activity against androgen receptor in androgen-dependent mouse SC3 cells; type: cell-based
[3] = biological target: T1, Androgen receptor (Homo sapiens, UniProt P10275); assay: Binding affinity to androgen receptor
T1 sequence (P10275 whole entry): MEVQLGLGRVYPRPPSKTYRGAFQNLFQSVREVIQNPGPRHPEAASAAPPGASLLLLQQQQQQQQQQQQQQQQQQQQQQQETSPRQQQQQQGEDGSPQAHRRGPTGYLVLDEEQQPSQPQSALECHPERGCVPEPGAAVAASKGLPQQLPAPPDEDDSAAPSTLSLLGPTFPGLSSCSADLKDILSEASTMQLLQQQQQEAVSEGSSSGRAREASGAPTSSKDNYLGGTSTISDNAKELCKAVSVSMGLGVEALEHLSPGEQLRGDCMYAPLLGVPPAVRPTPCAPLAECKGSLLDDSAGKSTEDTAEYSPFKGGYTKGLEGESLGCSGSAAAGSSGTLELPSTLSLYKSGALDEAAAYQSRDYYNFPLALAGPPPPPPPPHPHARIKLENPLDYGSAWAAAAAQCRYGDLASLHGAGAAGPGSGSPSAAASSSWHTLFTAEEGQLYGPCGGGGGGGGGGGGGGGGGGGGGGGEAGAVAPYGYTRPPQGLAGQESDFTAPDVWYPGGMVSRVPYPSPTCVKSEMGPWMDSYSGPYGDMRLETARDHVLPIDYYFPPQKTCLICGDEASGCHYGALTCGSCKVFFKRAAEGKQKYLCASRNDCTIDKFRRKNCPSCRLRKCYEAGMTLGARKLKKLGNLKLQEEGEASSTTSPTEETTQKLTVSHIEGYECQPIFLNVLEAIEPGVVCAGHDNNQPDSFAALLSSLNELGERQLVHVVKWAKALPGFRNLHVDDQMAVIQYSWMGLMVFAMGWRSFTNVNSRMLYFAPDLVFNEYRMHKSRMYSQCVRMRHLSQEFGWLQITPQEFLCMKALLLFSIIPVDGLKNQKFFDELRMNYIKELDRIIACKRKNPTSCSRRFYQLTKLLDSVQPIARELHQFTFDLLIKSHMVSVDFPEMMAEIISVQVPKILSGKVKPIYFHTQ

SMILES	Activity [1]	Ratio EC50 [2]	Ki [3] [nM]
CCC(CC)(c1ccc(OCC(O)C(C)(C)Cc2ccc3ccccc3c2)c(C)c1)c1ccc(OC[C@@H](O)CO)c(C)c1 (stereo partly drawn)	Toxic	–	–
CCC(CC)(c1ccc(OCC(O)C(C)(C)CCCc2ccccc2)c(C)c1)c1ccc(OC[C@@H](O)CO)c(C)c1 (stereo partly drawn)	–	28	–
CCC(CC)(c1ccc(OCC(O)C(C)(C)CCc2ccccc2)c(C)c1)c1ccc(OC[C@@H](O)CO)c(C)c1 (stereo partly drawn)	–	8.1	–
CCC(CC)(c1ccc(OCC(=O)C(C)(C)C)c(C)c1)c1ccc(OC[C@H](O)CO)c(C)c1	–	–	1100
CCC(CC)(c1ccc(OCC(=O)C(C)(C)CCCc2ccccc2)c(C)c1)c1ccc(OC[C@@H](O)CO)c(C)c1	–	> 3.1	–
CCC(CC)(c1ccc(OC[C@@H](O)CO)c(C)c1)c1ccc(O[C@@H]2CN(Cc3ccccc3)C[C@@H]2O)c(C)c1	Toxic	–	–
CCC(CC)(c1ccc(OCC(=O)C(C)(C)CCc2ccccc2)c(C)c1)c1ccc(OC[C@@H](O)CO)c(C)c1	–	21	–
CCC(CC)(c1ccc(OC[C@H](O)CO)c(C)c1)c1ccc(OC[C@H](O)C(C)(C)C)c(C)c1	–	–	1000
CCC(CC)(c1ccc(OC[C@@H](O)CO)c(C)c1)c1ccc(OC[C@H](O)C(C)(C)C)c(C)c1	–	–	1000
CCC(CC)(c1ccc(OCC(=O)C(C)(C)C)c(C)c1)c1ccc(OC[C@@H](O)CO)c(C)c1	–	–	1800
CCC(CC)(c1ccc(OCC(=O)C(C)(C)Cc2ccccc2)c(C)c1)c1ccc(OC[C@@H](O)CO)c(C)c1	Toxic	< 2.1	–
CCC(CC)(c1ccc(OC[C@H](O)CO)c(C)c1)c1ccc(OC[C@@H](O)C(C)(C)C)c(C)c1	–	–	1100
CCC(CC)(c1ccc(OCC(O)C(C)(C)CCCCc2ccccc2)c(C)c1)c1ccc(OC[C@@H](O)CO)c(C)c1 (stereo partly drawn)	Toxic	–	–
CCC(CC)(c1ccc(OCC(O)C23CC4CC(CC(C4)C2)C3)c(C)c1)c1ccc(OC[C@@H](O)CO)c(C)c1 (stereo partly drawn)	Toxic	< 2.2	–
CCC(CC)(c1ccc(OCC(O)C(C)(C)Cc2ccccc2)c(C)c1)c1ccc(OC[C@@H](O)CO)c(C)c1 (stereo partly drawn)	–	6.5	–
CCC(CC)(c1ccc(OC[C@@H](O)CO)c(C)c1)c1ccc(OC[C@@H](O)C(C)(C)C)c(C)c1	–	–	1100
